In one assay the target is T1, IKKε (Homo sapiens, UniProt Q14164).
T1 sequence (Q14164 1-716): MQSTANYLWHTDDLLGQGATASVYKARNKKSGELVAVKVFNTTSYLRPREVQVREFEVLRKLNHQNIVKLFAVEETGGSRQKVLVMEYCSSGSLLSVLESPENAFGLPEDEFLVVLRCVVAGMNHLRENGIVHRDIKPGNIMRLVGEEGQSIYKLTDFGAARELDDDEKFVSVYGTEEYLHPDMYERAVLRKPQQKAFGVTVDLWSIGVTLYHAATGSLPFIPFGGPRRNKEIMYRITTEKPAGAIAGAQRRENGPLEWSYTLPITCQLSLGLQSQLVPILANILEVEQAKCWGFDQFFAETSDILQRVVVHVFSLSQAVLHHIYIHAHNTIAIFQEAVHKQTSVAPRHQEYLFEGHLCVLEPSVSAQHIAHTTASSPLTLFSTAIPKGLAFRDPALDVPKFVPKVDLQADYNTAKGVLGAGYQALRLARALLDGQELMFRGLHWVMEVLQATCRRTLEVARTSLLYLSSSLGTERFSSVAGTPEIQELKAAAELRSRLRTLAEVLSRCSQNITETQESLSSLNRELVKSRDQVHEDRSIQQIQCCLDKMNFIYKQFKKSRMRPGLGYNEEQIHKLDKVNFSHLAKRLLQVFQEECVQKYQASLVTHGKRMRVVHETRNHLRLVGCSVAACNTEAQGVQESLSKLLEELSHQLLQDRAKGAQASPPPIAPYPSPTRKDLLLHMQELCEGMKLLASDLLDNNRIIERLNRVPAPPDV
Kind of assay: IKKe Biochemical Assay. The note with it: read-out: IKKε IC50. The procedure, abridged: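 Recombinant IKKε and substrate were incubated with compound (10-point 1:4 series, top 30 uM final, 1% DMSO) for 90 min at 25° C, then stopped. Substrate-to-product conversion was read by LabChip microfluidic mobility shift; 10 uM staurosporine served as full-inhibition wells.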

Assay [1] relates to phosphorylation of the IRF-3 protein in MDA-MB-468 cells. Kind of assay: pIRF3 immunocytochemistry cell based assay. The note with it: Homo sapiens; MDA-MB-468 cells, Poly(I:C) stimulation; read-out: pIRF3 IC50. The procedure, abridged:
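MDA-MB-468 cells got compounds (10-point, 3-fold from 10 uM) for 1 h at 37 °C, then 10 ug/ml Poly(I:C) for 2 h. Fixed, permeabilized cells were immunostained for pIRF3 with AlexaFluor488 and counterstained with PI. % phosphorylation was read by laser scanning cytometry, and IC50 curves were fitted.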

Another assay has as its target T2, TBK1 (Homo sapiens, UniProt Q9UHD2).
T2 sequence (Q9UHD2 1-729): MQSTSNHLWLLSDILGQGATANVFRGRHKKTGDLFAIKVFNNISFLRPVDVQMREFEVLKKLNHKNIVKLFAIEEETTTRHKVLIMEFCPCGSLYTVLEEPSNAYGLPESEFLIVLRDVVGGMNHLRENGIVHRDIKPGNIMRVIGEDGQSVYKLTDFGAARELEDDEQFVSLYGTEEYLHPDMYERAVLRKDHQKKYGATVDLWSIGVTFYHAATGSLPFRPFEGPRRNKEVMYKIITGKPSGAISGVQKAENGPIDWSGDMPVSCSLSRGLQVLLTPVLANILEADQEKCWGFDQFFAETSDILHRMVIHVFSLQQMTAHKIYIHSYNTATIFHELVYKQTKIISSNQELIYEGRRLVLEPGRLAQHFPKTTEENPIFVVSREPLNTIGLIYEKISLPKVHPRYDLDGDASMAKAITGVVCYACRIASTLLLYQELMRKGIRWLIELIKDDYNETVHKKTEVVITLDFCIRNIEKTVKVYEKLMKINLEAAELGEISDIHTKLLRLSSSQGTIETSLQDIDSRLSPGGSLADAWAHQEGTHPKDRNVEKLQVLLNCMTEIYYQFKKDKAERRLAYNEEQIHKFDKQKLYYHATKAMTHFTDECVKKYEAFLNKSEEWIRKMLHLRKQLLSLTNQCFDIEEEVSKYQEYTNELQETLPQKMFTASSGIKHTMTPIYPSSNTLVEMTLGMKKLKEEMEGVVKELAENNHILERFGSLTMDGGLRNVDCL
Nature of the assay: TBK Biochemical Assay. The note with it: read-out: TBK1 IC50. The procedure, abridged: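 TBK1 enzyme and substrate incubated with compounds (10-point 1:4 dilution, top 30 uM final, 1% DMSO) for 90 min at 25° C, then stopped. Substrate/product peaks read by microfluidic mobility-shift (Caliper LabChip); 10 uM staurosporine as full-inhibition control.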

Where a name gives a salt, the structure may show the parent alone. A value given as a limit tells only on which side of the number the result lay.

A word on the IC50: it is the concentration at which inhibition is half-maximal. Turning to `COc1cc(C(=O)N(C)C)ccc1-c1cc2nccc(-c3ccc(O[C@@H]4CCNC[C@@H]4F)c(C#N)c3)c2o1` [Compound 153, 4-{7-[3-Cyano-4-((3S,4R)-3-fluoro-piperidin-4-yloxy)-phenyl]-furo[3,2-b]pyridin-2-yl}-3-methoxy-N,N-dimethyl-benzamide hydrochloride], the IC50 at IKKε is less than 100 nM; in assay [1], 100 to 1000 nM; on TBK1 it was less than 100 nM.

On to `CC(=O)Nc1ccc(-c2cc3nccc(-c4ccc(OC5CCOCC5)c(C#N)c4)c3o2)cc1` [Compound 154], for which the IC50 at IKKε is less than 100 nM; in assay [1] it was 1000 to 5000 nM; at TBK1 it was less than 100 nM.

Regarding `COc1cc(C(=O)N(C)C)ccc1-c1cc2nccc(-c3ccc(OCC4CCNCC4)c(C#N)c3)c2o1` [Compound 155, 4-{7-[3-Cyano-4-(piperidin-4-ylmethoxy)-phenyl]-furo[3,2-b]pyridin-2-yl}-3-methoxy-N,N-dimethyl-benzamide], the IC50 at IKKε is less than 100 nM; in assay [1], 100 to 1000 nM; at TBK1 it was less than 100 nM.

As to `CN(C)C(=O)c1ccc(-c2cc3nccc(-c4ccc(O[C@@H]5CCCOC5)c(C#N)c4)c3o2)cc1` [Compound 156, 4-(7-{3-Cyano-4-[(R)-(tetrahydro-pyran-3-yl)oxy]-phenyl}-furo[3,2-b]pyridin-2-yl)-N,N-dimethyl-benzamide], the IC50 is less than 100 nM at IKKε, 1000 to 5000 nM in assay [1] and less than 100 nM on TBK1.

For the compound `COc1cc(C(=O)N(C)C)ccc1-c1cc2nccc(-c3ccc(OC4CCNCC4)c(C#N)c3)c2o1` [Compound 158, 4-{7-[3-Cyano-4-(piperidin-4-yloxy)-phenyl]-furo[3,2-b]pyridin-2-yl}-3-methoxy-N,N-dimethyl-benzamide Hydrochloride], the IC50 at IKKε was less than 100 nM; in assay [1], 100 to 1000 nM; at TBK1 it was 100 to 1000 nM.

As for `CN(C)C(=O)c1ccc(-c2cc3nccc(-c4ccc(OC5(C)CCOCC5)c(C#N)c4)c3o2)cc1` [Compound 159, 4-{7-[3-Cyano-4-(4-methyl-tetrahydro-pyran-4-yloxy)-phenyl]-furo[3,2-b]pyridin-2-yl}-N,N-dimethyl-benzamide], the figures for the IC50 (at IKKε; in assay [1]; on TBK1) were 100 to 1000 nM, more than 5000 nM and 100 to 1000 nM, respectively.

In the case of `CN(C)C(=O)c1ccc(-c2cc3nccc(-c4ccc(OC5CCCOC5)c(C#N)c4)c3o2)cc1` (stereo not drawn) [Compound 160], the values for the IC50 (on IKKε; in assay [1]; on TBK1) were less than 100 nM, 1000 to 5000 nM and 100 to 1000 nM, respectively.

Take `COc1cc(C(=O)N(C)C)ccc1-c1cc2nccc(-c3cc(C#N)c(OC4CCOCC4)cn3)c2o1` [Compound 161, 4-{7-[4-Cyano-5-(tetrahydro-pyran-4-yloxy)-pyridin-2-yl]-furo[3,2-b]pyridin-2-yl}-3-methoxy-N,N-dimethyl-benzamide]: the IC50 on IKKε was in the range of 100 to 1000 nM; in assay [1], 1000 to 5000 nM; at TBK1, 100 to 1000 nM.

Regarding `COc1cc(C(=O)N(C)C)ccc1-c1cc2nccc(-c3ccc(O[C@@H]4CCCNC4)c(C#N)c3)c2o1` [Compound 163, 4-{7-[3-Cyano-4-((R)-piperidin-3-yloxy)-phenyl]-furo[3,2-b]pyridin-2-yl}-3-methoxy-N,N-dimethyl-benzamide], the IC50 (on IKKε; in assay [1]; at TBK1) was 100 to 1000 nM throughout.

Turning to `N#Cc1cc(-c2ccnc3cc(-c4ccc(C(=O)O)cc4)oc23)ccc1OC1CCCOC1` (stereo not drawn) [Compound 166], the 50% inhibitory concentration (IC50) on IKKε was less than 100 nM; in assay [1], 100 to 1000 nM; on TBK1, 100 to 1000 nM.

For the compound `COc1ccc(-c2ccnc3cc(-c4ccc(C(=O)N(C)C)cc4)oc23)cc1C#N` [Compound 167, 4-[7-(3-Cyano-4-methoxy-phenyl)-furo[3,2-b]pyridin-2-yl]-N,N-dimethyl-benzamide], the IC50 lay within 100 to 1000 nM on IKKε, 1000 to 5000 nM in assay [1] and 100 to 1000 nM on TBK1.

`CN(C)C(=O)c1ccc(-c2cc3nccc(-c4ccc(OC5CC(CO)(CCl)C5)c(C#N)c4)c3o2)cc1` (stereo not drawn) [Compound 168, 4-{7-[4-(3-Chloromethyl-3-hydroxymethyl-cyclobutoxy)-3-cyano-phenyl]-furo[3,2-b]pyridin-2-yl}-N,N-dimethyl-benzamide]: the IC50 (at IKKε; in assay [1]; at TBK1) was 100 to 1000 nM in each case.

For `CN(C)C(=O)c1ccc(-c2cc3nccc(-c4ccc(OC5CCOC(C)(C)C5)c(C#N)c4)c3o2)cc1` (stereo not drawn) [Compound 170, 4-{7-[3-Cyano-4-(2,2-dimethyl-tetrahydro-pyran-4-yloxy)-phenyl]-furo[3,2-b]pyridin-2-yl}-N,N-dimethyl-benzamide], the IC50 at IKKε is 100 to 1000 nM; in assay [1] it was 1000 to 5000 nM; at TBK1, 100 to 1000 nM.

Turning to `N#Cc1cc(-c2ccnc3cc(-c4ccc(C(=O)NC5CN6CCC5CC6)cc4)oc23)ccc1OC1CCCOC1` (stereo not drawn) [Compound 171], the concentration for half-maximal inhibition (IC50) (on IKKε; in assay [1]; on TBK1) was 100 to 1000 nM throughout.

For `CN(C)C(=O)c1ccc(-c2cc3nccc(-c4ccc(N5CC[C@H](N(C)C)C5)c(C#N)c4)c3o2)cc1` [Compound 173, 4-{7-[3-Cyano-4-((S)-3-dimethylamino-pyrrolidin-1-yl)-phenyl]-furo[3,2-b]pyridin-2-yl}-N,N-dimethyl-benzamide], the IC50 on IKKε is 100 to 1000 nM; in assay [1], 1000 to 5000 nM; at TBK1 it was 100 to 1000 nM.

`CN(C)C(=O)c1ccc(-c2cc3nccc(-c4ccc(OC5CC6(COC6)C5)c(C#N)c4)c3o2)cc1` [Compound 177, 4-{7-[3-Cyano-4-(2-oxa-spiro[3.3]hept-6-yloxy)-phenyl]-furo[3,2-b]pyridin-2-yl}-N,N-dimethyl-benzamide]: the IC50 on IKKε is 100 to 1000 nM; in assay [1], 1000 to 5000 nM; on TBK1 it was 100 to 1000 nM.

`CN(C)C(=O)c1ccc(-c2cc3nccc(-c4ccc(N5CCC(N(C)C6CC6)C5)c(C#N)c4)c3o2)cc1` (stereo not drawn) [Compound 179, 4-(7-{3-Cyano-4-[3-(cyclopropyl-methyl-amino)-pyrrolidin-1-yl]-phenyl}-furo[3,2-b]pyridin-2-yl)-N,N-dimethyl-benzamide]: the IC50 at IKKε fell in the range of 100 to 1000 nM; in assay [1], 1000 to 5000 nM; at TBK1 it was 100 to 1000 nM.

Turning to `CN(C)C(=O)c1ccc(-c2cc3nccc(-c4ccc(NC5CCOC6(CC6)C5)c(C#N)c4)c3o2)cc1` (stereo not drawn) [Compound 286, 4-[7-[3-cyano-4-([4-oxaspiro[2.5]octan-7-yl]amino)phenyl]furo[3,2-b]pyridin-2-yl]-N,N-dimethylbenzamide], the IC50 was in the range of 100 to 1000 nM at IKKε, 1000 to 5000 nM in assay [1] and 100 to 1000 nM on TBK1.

Turning to `COc1cc(C(=O)N(C)C)ccc1-c1cc2nccc(-c3ccc(OC4CCOC5(CC5)C4)c(C#N)c3)c2o1` (stereo not drawn) [Compound 290, 4-[7-(3-cyano-4-[4-oxaspiro[2.5]octan-7-yloxy]phenyl)furo[3,2-b]pyridin-2-yl]-3-methoxy-N,N-dimethylbenzamide], the values for the IC50 (on IKKε; in assay [1]; at TBK1) were less than 100 nM, 100 to 1000 nM and less than 100 nM, respectively.

For the origin of these results see patent US10428080B2, “TBK/IKK inhibitor compounds and uses thereof” (Merck Patent GmbH, priority 2015, dated 2019).
